The values below are quoted from earlier work in US6077537A (Warner-Lambert Company, priority 1998, dated 2000).

For the series the following is noted: relative to parent compound.

On to `Cc1ccc(C(=CCN2CCCC2)c2cccc(CCC(=O)O)n2)cc1` [propionic acid analogue of acrivastine], for which the “plasma concentration of principal active metabolite” value is “well below those of parent compound”.
